In PubChem BioAssay (NCI):
Values joined by “and” are separate entries in the source; they are usually repeats but may differ in a detail not shown here. Identical values can stand only once.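 48-hour exposure; five concentrations; linearly interpolated endpoints. Here, GI50 denotes the concentration required for 50% inhibition of growth. TGI: concentration producing complete growth inhibition.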

What was measured:
Assay in all cases: DTP human tumour cell line panel, 48 h
A498 renal = test system: A498 renal
HCC-2998 colon = test system: HCC-2998 colon
K-562 leukemia = test system: K-562 leukemia
SF-268 CNS = test system: SF-268 CNS
SK-OV-3 ovarian = test system: SK-OV-3 ovarian
CAKI-1 renal = test system: CAKI-1 renal
MCF7 breast = test system: MCF7 breast
SNB-19 CNS = test system: SNB-19 CNS
OVCAR-4 ovarian = test system: OVCAR-4 ovarian
TK-10 renal = test system: TK-10 renal
EKVX NSCLC = test system: EKVX NSCLC

Compound	TGI (A498 renal)	TGI (HCC-2998 colon) [µM]	TGI (K-562 leukemia) [µM]	TGI (SF-268 CNS)	TGI (SK-OV-3 ovarian) [µM]	TGI (CAKI-1 renal)	TGI (MCF7 breast)	TGI (SNB-19 CNS) [µM]	TGI (OVCAR-4 ovarian)	TGI (TK-10 renal)	TGI (EKVX NSCLC)	GI50 (A498 renal) [µM]	GI50 (SF-268 CNS) [µM]	GI50 (CAKI-1 renal) [µM]	GI50 (MCF7 breast) [µM]	GI50 (OVCAR-4 ovarian) [µM]	GI50 (TK-10 renal) [µM]	GI50 (K-562 leukemia) [µM]
C[C@H]1COC2=C1C(=O)C(=O)c1c2ccc2c1CCCC2(C)C	52.6 µM	19.6	> 100	44.4 µM	83.6	> 54.9 µM	7.88 µM	66.4	> 100 µM	65.9 µM	71.7 µM	–	–	–	–	–	–	–
CCC[C@@H]1C(=O)N=C(N)N1C(=O)OCc1ccccc1	> 100 µM	> 100	> 100	> 100 µM	–	> 100 µM	> 100 µM	> 100	> 100 µM	> 100 µM	> 100 µM	–	–	–	–	–	–	–
Oc1cc(Br)cc2cc(Cl)cnc12	22.9 µM	46.3	12.3	> 39.9 µM	> 68.9	85.9 µM	23.8 µM	> 100	12.8 µM	> 94.3 µM	45.2 µM	–	–	–	–	–	–	–
Cc1c(C(=O)O)n2cnnc2c2ccccc12	> 100 µM	> 100	> 100	> 100 µM	> 100	> 100 µM	> 100 µM	> 100	> 100 µM	> 100 µM	> 100 µM	–	–	–	–	–	–	–
CN1CCN(C2=CC(=O)c3c(O)ccc(O)c3C2=O)CC1	2.87 µM	3.23	1.72	2.93 µM	> 10	3.08 µM	1.18 µM	3.05	3.46 µM	4.22 µM	3.26 µM	–	–	–	–	–	–	–
CC(C)(C)OC(=O)NCC(=O)N1CCN(C(=O)CNC(=O)OC(C)(C)C)CC1	> 100 µM	> 100	> 100	39.7 µM	> 100	> 100 µM	> 100 µM	> 100	> 100 µM	> 100 µM	> 100 µM	–	–	–	–	–	–	–
CCC(NC1=NCCO1)c1cccs1 (stereo unspecified)	42.5 µM	28.9	47.4	–	27.3	30.9 µM	29 µM	29.8	44.5 µM	29.9 µM	31.1 µM	–	–	–	–	–	–	–
O=C1C(=Cc2ccc(Cl)c(Cl)c2)C([O-])=C([P+](c2ccccc2)(c2ccccc2)c2ccccc2)C([O-])=C1[P+](c1ccccc1)(c1ccccc1)c1ccccc1	31.9 µM	5.78	8.33	3.94 µM	4.48	6.78 µM	11.2 µM	6.35	10.4 µM	5.6 µM	6.64 µM	–	–	–	–	–	–	–
[N-]=[N+]=Nc1c([N+](=O)[O-])c(=O)n2c3c(cccc13)CCC2	50.4 µM	34.4	3.84	21.3 µM	> 100	27.9 µM	27 µM	> 100	27 µM	34.3 µM	41.8 µM	–	–	–	–	–	–	–
OC1C[C@H](c2ccccc2)C2(C(O)c3ccccc3C2O)[C@@H](c2ccccc2)C1 (stereo partly specified)	> 100 µM	> 100	> 100	> 100 µM	> 100	> 100 µM	> 100 µM	> 100	> 100 µM	> 100 µM	> 100 µM	–	–	–	–	–	–	–
N#CC(C#N)=C1C(=O)NC(N)=C1C#N	> 100 µM	> 100	> 100	> 100 µM	> 100	> 100 µM	> 100 µM	> 100	> 100 µM	> 100 µM	> 100 µM	–	–	–	–	–	–	–
COc1ccc(Nc2nc(N)c(C(=O)c3cccs3)s2)cc1	40.5 µM	8.85	> 100	> 100 µM	> 100	> 100 µM	24.9 µM	> 64.8	48.1 µM	24.3 µM	> 75 µM	–	–	–	–	–	–	–
CCN1CCC(O)(/C=C/c2ccc(C(C)C)cc2)C(C(=O)/C=C/c2ccc(C(C)C)cc2)C1 (stereo unspecified)	19.1 µM	3.64	> 29	4.31 µM	31.8	8.86 µM	14 µM	15.5	8.71 µM	6.16 µM	5.74 µM	–	–	–	–	–	–	–
CCOC(=O)[C@@H]1ON2OC(OC3CCCC3(c3ccccc3)c3ccccc3)C(OC(C)=O)[C@H]3OC(=O)[C@@H]1C32 (stereo partly specified)	> 100 µM	> 100	> 100	> 100 µM	> 100	> 100 µM	50.4 µM	> 100	–	> 100 µM	> 100 µM	–	–	–	–	–	–	–
CCOC(=O)/C=C(\C(=O)OCC)n1ccc(=O)[nH]c1=O	34.8 µM	38.4	19.1	42 µM	> 76.1	3.52 µM	23.9 µM	> 100	> 52.3 µM	26.2 µM	34.9 µM	–	–	–	–	–	–	–
CC(=O)OC1COC(Nc2nc(N)n(C)c(=O)c2N=O)C(OC(C)=O)C1OC(C)=O (stereo unspecified)	> 10 µM	> 10	–	> 10 µM	> 10	> 10 µM	> 10 µM	> 10	> 10 µM	> 10 µM	> 10 µM	–	–	–	–	–	–	–
CC1(C)CCc2c(c(N=Nc3ccc(F)cc3)c3ccccc3c2O)O1	88.8 µM	42.8	> 100	> 100 µM	> 100	> 100 µM	> 100 µM	> 100	> 100 µM	> 100 µM	97 µM	–	–	–	–	–	–	–
CC1=C(C)C(=O)C(C2=CC(=O)C=CC2=O)=C(C2=CC(=O)C=CC2=O)C1=O	> 100 µM	> 100	–	> 100 µM	> 100	> 56.6 µM	> 81.4 µM	> 100	51.3 µM	> 100 µM	> 100 µM	–	–	–	–	–	–	–

Compound	TGI (A498 renal)	TGI (HCC-2998 colon) [µM]	TGI (K-562 leukemia) [µM]	TGI (SF-268 CNS)	TGI (SK-OV-3 ovarian) [µM]	TGI (CAKI-1 renal)	TGI (MCF7 breast)	TGI (SNB-19 CNS) [µM]	TGI (OVCAR-4 ovarian)	TGI (TK-10 renal)	TGI (EKVX NSCLC)	GI50 (A498 renal) [µM]	GI50 (SF-268 CNS) [µM]	GI50 (CAKI-1 renal) [µM]	GI50 (MCF7 breast) [µM]	GI50 (OVCAR-4 ovarian) [µM]	GI50 (TK-10 renal) [µM]	GI50 (K-562 leukemia) [µM]
CCCCCCCCCCCCCC(=O)N(CCCCCCCCC)CC(O)C(O)C(OC1OC(CO)C(O)C(O)C1O)C(O)CO (stereo unspecified)	35.9 µM	33.7	39.4	39.4 µM	30.8	30.6 µM	> 100 µM	44	46.6 µM	33.7 µM	34.5 µM	–	–	–	–	–	–	–
CC(=O)/C(=C/N1CCNC1=S)C(=O)Nc1ccccc1C	> 100 µM	> 100	> 100	> 100 µM	> 100	> 100 µM	> 100 µM	> 100	> 100 µM	> 100 µM	> 100 µM	–	–	–	–	–	–	–
CN(Cc1cc(Cl)c(Cl)cc1NC(=O)CN)[C@H]1CCCC[C@@H]1N1CCCC1	41.5 µM	31.2	35.9	> 100 µM	> 100	> 100 µM	> 100 µM	> 100	> 100 µM	> 100 µM	> 100 µM	–	–	–	–	–	–	–
O=c1[nH]c(=S)c2cc3c(=S)[nH]c(=O)n(CCO)c3nc2n1CCO	> 100 µM	> 100	> 100	> 100 µM	> 100	> 100 µM	> 100 µM	> 100	> 100 µM	> 100 µM	> 100 µM	–	–	–	–	–	–	–
O=[N+]([O-])c1cccc2nccc(NCCCO)c12	23.6 µM	26	49.3	28.6 µM	61	35.4 µM	27.9 µM	69.5	23.8 µM	52.3 µM	23.2 µM	–	–	–	–	–	–	–
C=C(C(=O)O[C@H]1C(=O)C2=C(C)CCC3C(=C)C(=O)O[C@@H]3C2[C@]1(C)O)C1CC[C@]2(C)CCCC(=C)[C@H]2C1 (stereo partly specified)	6.88 µM and 26.1 µM	9.68	> 20.1	14.8 µM and 11 µM	30.5	10.2 µM and 25.3 µM	8.81 µM and 10.8 µM	26.6	13.4 µM and 11.3 µM	12.3 µM and 6.78 µM	17.8 µM and 22.7 µM	0.0282	7.47	3.67	1.75	6.69	6	–
NC(N)=NCCCC(NC(=O)OCCCCn1ccc(N)nc1=O)C(=O)O (stereo unspecified)	> 100 µM	> 100	> 100	> 100 µM	> 100	> 100 µM	> 100 µM	> 100	> 100 µM	> 100 µM	> 100 µM	–	–	–	–	–	–	–
CC1=NN(c2nc(N)nc(CF)n2)C(C)(C)C1	> 100 µM	> 100	> 100	> 100 µM	> 100	> 100 µM	> 100 µM	> 100	> 100 µM	> 100 µM	> 100 µM	–	–	–	–	–	–	–
Cc1sc2nc3n(c(=O)c2c1C)N=CN(c1ccc(F)cc1)C3	> 100 µM	> 100	> 100	> 100 µM	> 100	> 100 µM	> 100 µM	> 100	38.5 µM	> 100 µM	> 100 µM	–	–	–	–	–	–	–
COc1ccc(C(=O)/C=C/c2cc(O)c(O)cc2F)c(OC)c1	26.8 µM	7.42	> 43.1	32.3 µM	47.2	> 100 µM	13.9 µM	24.9	> 100 µM	66.3 µM	49 µM	–	–	–	–	–	–	–
O=[N+]([O-])C(Cl)=C/C(=C(\Cl)SCc1ccccc1)[N+](=O)[O-]	81.4 µM	77.6	30.5	> 100 µM	> 100	34.2 µM	> 100 µM	> 100	41.2 µM	48.3 µM	35.2 µM	–	–	–	–	–	–	–
Brc1ccc2c(-c3csc(-c4c[nH]c5ccccc45)n3)c[nH]c2c1	32.2 µM	30.9	37.5	34.5 µM	44.8	33.4 µM	37.1 µM	31.7	39.8 µM	27.5 µM	36.1 µM	–	–	–	16.7	–	–	18.8
CC(=O)c1c2n(n(-c3ccccc3)c1=O)C(=O)c1nccnc1-2	> 100 µM	> 100	> 100	> 100 µM	> 100	> 100 µM	> 100 µM	> 100	> 100 µM	–	> 100 µM	–	–	–	–	–	–	–
C=CCn1c(-c2ccc([N+](=O)[O-])cc2)csc1=N	> 100 µM	> 100	91.5	> 100 µM	> 100	> 100 µM	> 100 µM	> 100	> 100 µM	> 100 µM	> 100 µM	–	–	–	–	–	–	–
CC(C)(C)[Si](C)(C)OCC1OC(n2cnc3c(=O)[nH]c(N)nc32)C(O[Si](C)(C)C(C)(C)C)C1O[Si](C)(C)C(C)(C)C (stereo unspecified)	6.21 µM	4.02	2.76	7.16 µM	4.45	52.9 µM	3.9 µM	6.14	3.65 µM	5.97 µM	> 46.6 µM	–	–	–	–	–	–	–
Cn1c(O)c(C=Nc2ccccc2Cl)c(=O)n(C)c1=O	> 100 µM	34.2	> 100	> 100 µM	> 100	> 100 µM	> 100 µM	78.4	98.6 µM	> 100 µM	> 100 µM	–	–	–	–	–	–	–
C=CC(C)(C)C(=C)C(=O)Nc1ccccc1I	> 100 µM	> 100	> 100	> 100 µM	> 100	> 100 µM	> 100 µM	> 100	> 100 µM	–	> 100 µM	–	–	–	–	–	–	–
CNc1ncnc2c1cnn2Cc1cn(COCC(O)CO)nn1 (stereo unspecified)	> 100 µM	> 100	–	22 µM	> 100	> 100 µM	> 100 µM	> 100	> 100 µM	> 100 µM	> 100 µM	–	–	–	–	–	–	–
